{
  "source": "patent US20070282007A1",
  "about": "“TREATMENT OF PAIN DISORDERS WITH trans 4-(3,4-DICHLOROPHENYL)-1,2,3,4-TETRAHYDRO-1-NAPHTHALENAMINE AND ITS FORMAMIDE” (SEPRACOR INC., priority 2006, published 2007)",
  "key": {"[1]": {"target": "T1, Norepinephrine (NE) uptake (Rattus norvegicus, UniProt Q63380)", "T1 construct": "from tissue; host or cells: synaptosomes from rat hypothalamus", "T1 sequence (Q63380 1-617)": "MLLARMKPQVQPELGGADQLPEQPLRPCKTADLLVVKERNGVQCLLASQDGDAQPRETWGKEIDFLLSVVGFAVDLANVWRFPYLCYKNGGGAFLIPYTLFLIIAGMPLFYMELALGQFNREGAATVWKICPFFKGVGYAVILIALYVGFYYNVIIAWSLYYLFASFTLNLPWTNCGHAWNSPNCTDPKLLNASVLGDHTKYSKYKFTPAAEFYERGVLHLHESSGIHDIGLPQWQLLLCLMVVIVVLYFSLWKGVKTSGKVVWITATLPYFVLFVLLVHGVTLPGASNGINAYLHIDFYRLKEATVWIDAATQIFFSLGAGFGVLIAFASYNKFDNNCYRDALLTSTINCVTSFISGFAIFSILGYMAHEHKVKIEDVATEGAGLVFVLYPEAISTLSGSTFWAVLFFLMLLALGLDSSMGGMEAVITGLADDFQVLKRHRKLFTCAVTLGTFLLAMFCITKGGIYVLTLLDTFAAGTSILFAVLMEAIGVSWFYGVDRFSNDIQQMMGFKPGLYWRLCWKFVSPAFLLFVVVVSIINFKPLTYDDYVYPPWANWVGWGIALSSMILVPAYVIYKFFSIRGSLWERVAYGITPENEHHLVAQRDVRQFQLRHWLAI", "assay": "Functional uptake of radiolabeled NE into synaptosomes from rat hypothalamus", "assay_type": "biochemical", "method": "The 5-HT and NE assays were performed essentially as outlined in Perovic S. & Müller W. E. G., Arzneim.-Forsch."}, "[2]": {"target": "B2 (Homo sapiens, UniProt P30411)", "sequence (P30411 whole entry)": "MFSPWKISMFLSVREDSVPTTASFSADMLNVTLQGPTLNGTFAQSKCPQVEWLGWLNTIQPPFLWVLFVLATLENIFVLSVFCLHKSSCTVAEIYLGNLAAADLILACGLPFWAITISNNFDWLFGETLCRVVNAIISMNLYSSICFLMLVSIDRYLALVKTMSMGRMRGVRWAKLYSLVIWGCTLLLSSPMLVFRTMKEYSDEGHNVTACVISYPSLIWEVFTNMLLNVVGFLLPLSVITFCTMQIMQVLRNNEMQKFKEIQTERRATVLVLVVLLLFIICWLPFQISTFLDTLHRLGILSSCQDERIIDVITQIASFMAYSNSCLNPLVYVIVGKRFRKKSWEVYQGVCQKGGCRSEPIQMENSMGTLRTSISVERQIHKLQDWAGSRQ", "assay": "In vitro radioligand binding assay, B2"}, "[3]": {"target": "D1 (Homo sapiens, UniProt P21728)", "sequence (P21728 whole entry)": "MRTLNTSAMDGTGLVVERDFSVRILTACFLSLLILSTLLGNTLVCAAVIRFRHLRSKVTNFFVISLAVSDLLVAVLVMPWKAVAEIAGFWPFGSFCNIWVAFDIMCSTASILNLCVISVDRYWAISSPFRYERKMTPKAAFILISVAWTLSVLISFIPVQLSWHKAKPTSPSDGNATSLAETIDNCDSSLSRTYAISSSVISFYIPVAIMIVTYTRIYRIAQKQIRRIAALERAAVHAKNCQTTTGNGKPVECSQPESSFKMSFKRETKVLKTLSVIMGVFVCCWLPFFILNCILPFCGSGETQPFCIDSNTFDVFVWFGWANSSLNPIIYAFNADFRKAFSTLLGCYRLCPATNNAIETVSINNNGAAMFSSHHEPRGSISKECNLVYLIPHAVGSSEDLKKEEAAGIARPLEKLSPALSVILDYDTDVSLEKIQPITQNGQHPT", "assay": "In vitro radioligand binding assay, D1"}, "[4]": {"target": "T2, M5 (Homo sapiens, UniProt P08912)", "T2 sequence (P08912 1-532)": "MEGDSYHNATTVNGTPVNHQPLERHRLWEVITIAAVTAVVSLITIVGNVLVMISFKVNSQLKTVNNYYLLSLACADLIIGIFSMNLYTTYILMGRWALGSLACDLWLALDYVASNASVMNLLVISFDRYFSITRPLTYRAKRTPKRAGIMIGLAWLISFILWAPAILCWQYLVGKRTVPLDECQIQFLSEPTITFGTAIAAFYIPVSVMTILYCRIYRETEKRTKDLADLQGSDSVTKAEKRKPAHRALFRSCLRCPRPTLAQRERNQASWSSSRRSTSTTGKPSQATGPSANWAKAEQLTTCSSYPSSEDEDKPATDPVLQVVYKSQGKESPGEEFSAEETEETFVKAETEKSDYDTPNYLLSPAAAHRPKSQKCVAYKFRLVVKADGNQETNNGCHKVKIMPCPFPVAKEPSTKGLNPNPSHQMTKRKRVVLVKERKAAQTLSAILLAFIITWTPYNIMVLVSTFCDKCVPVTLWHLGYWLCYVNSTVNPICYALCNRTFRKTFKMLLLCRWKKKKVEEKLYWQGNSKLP", "assay": "In vitro radioligand binding assay, M5", "conditions": "read-out: Ki, M5"}, "[5]": {"target": "T3, 5-HT1A (Homo sapiens, UniProt P08908)", "T3 sequence (P08908 1-422)": "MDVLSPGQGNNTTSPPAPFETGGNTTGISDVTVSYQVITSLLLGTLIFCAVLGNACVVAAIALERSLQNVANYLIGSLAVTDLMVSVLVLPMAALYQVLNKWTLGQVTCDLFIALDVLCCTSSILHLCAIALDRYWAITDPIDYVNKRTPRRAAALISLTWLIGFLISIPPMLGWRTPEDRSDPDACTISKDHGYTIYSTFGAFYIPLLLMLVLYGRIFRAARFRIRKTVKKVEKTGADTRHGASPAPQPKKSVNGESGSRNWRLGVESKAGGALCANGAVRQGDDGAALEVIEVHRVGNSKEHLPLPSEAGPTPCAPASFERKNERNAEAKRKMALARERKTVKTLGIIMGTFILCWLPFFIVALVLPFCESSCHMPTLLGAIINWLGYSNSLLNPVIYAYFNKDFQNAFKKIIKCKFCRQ", "assay": "In vitro radioligand binding assay, 5-HT1A"}, "[6]": {"target": "5-HT1B (Homo sapiens, UniProt P28222)", "sequence (P28222 whole entry, species assumed)": "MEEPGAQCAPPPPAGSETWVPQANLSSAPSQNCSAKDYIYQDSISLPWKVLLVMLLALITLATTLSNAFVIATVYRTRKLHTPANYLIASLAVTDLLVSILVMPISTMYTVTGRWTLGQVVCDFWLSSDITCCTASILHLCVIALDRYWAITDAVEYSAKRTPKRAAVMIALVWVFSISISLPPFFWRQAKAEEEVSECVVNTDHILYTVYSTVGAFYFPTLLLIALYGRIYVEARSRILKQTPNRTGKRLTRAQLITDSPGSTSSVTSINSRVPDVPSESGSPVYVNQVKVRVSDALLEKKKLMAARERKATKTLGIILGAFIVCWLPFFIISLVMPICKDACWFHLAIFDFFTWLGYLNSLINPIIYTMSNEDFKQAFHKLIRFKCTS", "assay": "In vitro radioligand binding assay, 5-HT1B"}, "[7]": {"target": "5-HT2C (Homo sapiens, UniProt P28335)", "sequence (P28335 33-458, species assumed)": "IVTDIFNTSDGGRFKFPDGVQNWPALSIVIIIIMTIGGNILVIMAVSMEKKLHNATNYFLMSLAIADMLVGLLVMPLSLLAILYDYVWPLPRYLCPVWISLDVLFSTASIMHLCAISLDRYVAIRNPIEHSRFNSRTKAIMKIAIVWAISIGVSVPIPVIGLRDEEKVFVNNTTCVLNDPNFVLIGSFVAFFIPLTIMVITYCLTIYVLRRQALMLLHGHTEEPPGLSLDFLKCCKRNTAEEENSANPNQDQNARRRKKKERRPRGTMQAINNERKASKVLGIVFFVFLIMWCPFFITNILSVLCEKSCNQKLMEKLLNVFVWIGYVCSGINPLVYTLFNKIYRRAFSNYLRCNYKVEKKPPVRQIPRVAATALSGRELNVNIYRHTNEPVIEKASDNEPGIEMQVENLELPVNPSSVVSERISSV", "assay": "In vitro radioligand binding assay, 5-HT2C"}, "[8]": {"target": "T4, M3 receptor (Cavia porcellus, UniProt H0W1Z3)", "T4 construct": "from tissue; host or cells: isolated guinea pig ileum", "T4 sequence (H0W1Z3 1-590)": "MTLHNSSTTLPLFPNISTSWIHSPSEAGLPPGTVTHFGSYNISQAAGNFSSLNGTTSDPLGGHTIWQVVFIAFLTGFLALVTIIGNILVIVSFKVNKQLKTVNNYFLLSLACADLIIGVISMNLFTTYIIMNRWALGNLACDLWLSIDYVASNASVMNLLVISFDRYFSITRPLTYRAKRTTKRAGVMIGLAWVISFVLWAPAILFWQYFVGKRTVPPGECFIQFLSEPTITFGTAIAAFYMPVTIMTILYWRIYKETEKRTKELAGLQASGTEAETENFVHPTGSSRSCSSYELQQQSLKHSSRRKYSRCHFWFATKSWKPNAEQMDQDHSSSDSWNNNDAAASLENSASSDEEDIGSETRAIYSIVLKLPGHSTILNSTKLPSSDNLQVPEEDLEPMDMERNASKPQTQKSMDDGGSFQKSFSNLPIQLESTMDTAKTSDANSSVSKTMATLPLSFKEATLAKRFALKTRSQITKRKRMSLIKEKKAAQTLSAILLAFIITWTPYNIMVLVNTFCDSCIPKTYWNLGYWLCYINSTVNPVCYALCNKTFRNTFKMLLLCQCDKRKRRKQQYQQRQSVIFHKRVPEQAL", "assay": "Carbachol-induced contraction of the isolated Guinea pig ileum"}, "[9]": {"system": "Long-Evans derived rats", "assay": "Porsolt forced swim test", "assay_type": "in vivo, rat", "conditions": "for Mean Immobility Time (% of Total) ± SEM, Day 2 Study: 3 administrations; for Mean Immobility Time (% of Total) ± SEM, Day 4 Study: 7 administrations", "method": "Performance in the Porsolt forced swim test was evaluated for sertraline and Compound P following protocols outlined in Porsolt R. D., et al., Arch. Int. Pharmacodyn., 229: 327 ([…]).\nThe Porsolt forced swim test is a model of “behavioral despair”, which has been used as an in vivo model for assessing potential antidepressant-like activity. Both test articles were dissolved in physiological saline (vehicle) and administered intraperitoneally. […] Long-Evans derived rats were used."}, "[10]": {"system": "Rat SNL Model", "assay": "SNL model of neuropathic pain, mechanical allodynia testing", "assay_type": "in vivo", "method": "The animals were anesthetized with isoflurane, the left L5 transverse process was removed, and the L5 and L6 spinal nerves were tightly ligated with 6-0 silk suture. The wound was then closed with internal sutures and external staples. Wound clips were removed 10-11 days following surgery.\nAnimals were placed on a perforated metallic platform and allowed to acclimate to their surroundings for a minimum of 30 minutes before testing. The mean and standard error of the mean (SEM) were determined for each animal in each treatment group. Since this stimulus is normally not considered painful, significant injury-induced increases in responsiveness in this test are interpreted as a measure of mechanical allodynia. Mechanical allodynia was evaluated 14 days post-surgery.\nTen rats were studied per group and the tests were performed blind. (1R,4S)-4-(3,4-dichlorophenyl)-1,2,3,4-tetrahydro-1-naphthalenamine (P) was evaluated at 3 doses (5, 10 and 15 mg/kg), administered orally and compared with a vehicle control group. Gabapentin (100 mg/kg) and duloxetine (30 mg/kg) administered orally under the same experimental conditions, were used as comparator substances. Mechanical allodynia and hyperalgesia testing were conducted at baseline and 1, 2 and 4 hours after test article administration."}, "[11]": {"system": "rats", "assay": "Formalin test, second test with Automated Nociception Analyzer", "assay_type": "in vivo, rat", "conditions": "automated detection; for Number of Flinches, Acute Phase (Mean ± SEM): 0-10 minutes after formalin; for Number of Flinches, Late Phase (Mean ± SEM): 10-60 minutes after formalin", "method": "In a second test, flinching behaviors were measured for 90 minutes after formalin injection using an automated detection system. […] This device used a magnetic detection system to measure paw movements, called “flinches”. Small metal bands were attached to the left hind paw of rats just before placement into individual circular test chambers 30 minutes prior to formalin injection. […] In addition to duloxetine, morphine (6 mg/kg, subcutaneously) was used as a comparator substance. Animals were treated with morphine 30 minutes prior to the formalin injection. To initiate the experiment, the rats were injected with formalin subcutaneously on the dorsal surface of the left hind paw and placed in the test chambers. The instrument subsequently recorded rapid foot movements counted in one minute epochs."}},
  "data": [
    {"smiles": "N[C@@H]1CC[C@@H](c2ccc(Cl)c(Cl)c2)c2ccccc21", "note": "[Compound P, (1R,4S)-trans 4-(3,4-dichlorophenyl)-1,2,3,4-tetrahydro-1-napthalenamine]", "values": [
      {"measurement": "IC50", "setting": "[1]", "result": 0.0096, "unit": "µM"},
      {"measurement": "Ki", "setting": "[2]", "result": 1.5, "unit": "µM"},
      {"measurement": "Ki", "setting": "[3]", "result": 6.8, "unit": "µM"},
      {"measurement": "Ki", "setting": "[4]", "result": 8.4, "unit": "µM"},
      {"measurement": "Ki", "setting": "[5]", "result": 1.1, "unit": "µM"},
      {"measurement": "Ki", "setting": "[6]", "result": 1, "unit": "µM"},
      {"measurement": "Ki", "setting": "[7]", "result": 5.1, "unit": "µM"},
      {"measurement": "IC50", "setting": "[8]; duplicate samples, read-out: IC50 for inhibition of carbachol-induced contraction of the Guinea Pig ileum", "result": 9, "unit": "µM"},
      {"measurement": "M3 agonist effect on isolated Guinea pig ileum", "setting": "[8]; graded concentrations, compound alone", "result": "no an M3 agonist"},
      {"measurement": "Mean Immobility Time (% of Total) ± SEM, Day 2 Study", "setting": "[9]; 1.25 mg/kg i.p.", "result": "77 ± 3 % of Total"},
      {"measurement": "Mean Immobility Time (% of Total) ± SEM, Day 4 Study", "setting": "[9]; 1.25 mg/kg i.p.", "result": "69 ± 4 % of Total"},
      {"measurement": "Mean Immobility Time (% of Total) ± SEM, Day 2 Study", "setting": "[9]; 2.5 mg/kg i.p.", "result": "48 ± 6 % of Total"},
      {"measurement": "Mean Immobility Time (% of Total) ± SEM, Day 4 Study", "setting": "[9]; 2.5 mg/kg i.p.", "result": "46 ± 8 % of Total"},
      {"measurement": "Mean Immobility Time (% of Total) ± SEM, Day 2 Study", "setting": "[9]; 5.0 mg/kg i.p.", "result": "49 ± 5 % of Total"},
      {"measurement": "Mean Immobility Time (% of Total) ± SEM, Day 4 Study", "setting": "[9]; 5.0 mg/kg i.p.", "result": "19 ± 6 % of Total"},
      {"measurement": "Mechanical Allodynia, Paw Withdrawal Threshold (Mean ± SEM)", "setting": "[10]; 5 mg/kg PO, 0 h (Baseline)", "result": "3.1 ± 0.2", "unit": "g"},
      {"measurement": "Mechanical Allodynia, Paw Withdrawal Threshold (Mean ± SEM)", "setting": "[10]; 5 mg/kg PO, 1 h", "result": "3.7 ± 0.3", "unit": "g"},
      {"measurement": "Mechanical Allodynia, Paw Withdrawal Threshold (Mean ± SEM)", "setting": "[10]; 5 mg/kg PO, 2 h", "result": "3.2 ± 0.2", "unit": "g"},
      {"measurement": "Mechanical Allodynia, Paw Withdrawal Threshold (Mean ± SEM)", "setting": "[10]; 5 mg/kg PO, 4 h", "result": "3.9 ± 0.2", "unit": "g"},
      {"measurement": "Mechanical Allodynia, Paw Withdrawal Threshold (Mean ± SEM)", "setting": "[10]; 10 mg/kg PO, 0 h (Baseline)", "result": "2.8 ± 0.2", "unit": "g"},
      {"measurement": "Mechanical Allodynia, Paw Withdrawal Threshold (Mean ± SEM)", "setting": "[10]; 10 mg/kg PO, 1 h", "result": "5.0 ± 0.3", "unit": "g"},
      {"measurement": "Mechanical Allodynia, Paw Withdrawal Threshold (Mean ± SEM)", "setting": "[10]; 10 mg/kg PO, 2 h", "result": "5.7 ± 0.5", "unit": "g"},
      {"measurement": "Mechanical Allodynia, Paw Withdrawal Threshold (Mean ± SEM)", "setting": "[10]; 10 mg/kg PO, 4 h", "result": "6.6 ± 0.4", "unit": "g"},
      {"measurement": "Mechanical Allodynia, Paw Withdrawal Threshold (Mean ± SEM)", "setting": "[10]; 15 mg/kg PO, 0 h (Baseline)", "result": "2.9 ± 0.1", "unit": "g"},
      {"measurement": "Mechanical Allodynia, Paw Withdrawal Threshold (Mean ± SEM)", "setting": "[10]; 15 mg/kg PO, 1 h", "result": "8.8 ± 0.6", "unit": "g"},
      {"measurement": "Mechanical Allodynia, Paw Withdrawal Threshold (Mean ± SEM)", "setting": "[10]; 15 mg/kg PO, 2 h", "result": "7.5 ± 0.5", "unit": "g"},
      {"measurement": "Mechanical Allodynia, Paw Withdrawal Threshold (Mean ± SEM)", "setting": "[10]; 15 mg/kg PO, 4 h", "result": "13.6 ± 0.3", "unit": "g"},
      {"measurement": "Number of Flinches, Acute Phase (Mean ± SEM)", "setting": "[11]; 5 mg/kg PO", "result": "194 ± 33"},
      {"measurement": "Number of Flinches, Late Phase (Mean ± SEM)", "setting": "[11]; 5 mg/kg PO", "result": "1263 ± 181"},
      {"measurement": "Number of Flinches, Acute Phase (Mean ± SEM)", "setting": "[11]; 10 mg/kg PO", "result": "143 ± 27"},
      {"measurement": "Number of Flinches, Late Phase (Mean ± SEM)", "setting": "[11]; 10 mg/kg PO", "result": "1679 ± 163"},
      {"measurement": "Number of Flinches, Acute Phase (Mean ± SEM)", "setting": "[11]; 15 mg/kg PO", "result": "212 ± 40"},
      {"measurement": "Number of Flinches, Late Phase (Mean ± SEM)", "setting": "[11]; 15 mg/kg PO", "result": "2236 ± 153"}
    ]}
  ]
}
